US20260123654A1, “METHOD FOR IMPROVING THE BIOAVAILABILITY OF FUNCTIONAL FOOD PRODUCTS” (priority 2022, published 2026)

What was measured:
[1] = Triacylglycerols (TAG) content in rat serum after bolus intragastric administration of olive oil; format: in vivo, Wistar rats; conditions: 1, 2, and 3 hours after bolus intragastric administration of olive oil; xenon 280 vol. %, krypton 24 vol. %
Protocol: Studies on the effect of xenon on the absorption and transport of triacylglycerols were carried out in an experiment as described [Wang Z., Wang L., Zhang Z., Feng L., Song X., & Wu J. Apolipoprotein A-IV involves in glucose and lipid metabolism of rat//Nutrition & metabolism.-2019.-T. 16.- ? 1.-P. 1-9.], were performed on 12 Wistar rats weighing 320-360 g.
All animals were divided into 3 groups: 1-control, 2-experimental, 3-experimental. The animals were fasted for 6 hours before the experiment, and then rats of the control group (n=4) were injected intragastrically with bolus Extra Virgin olive oil (Aceites Toledo, Spain) at a dose of 1 ml/100 g body weight. […]
An introduction of gases into the oils was carried out using an emulsion production reactor with a volume of 11. […] A content of xenon and krypton in the oil was determined by a gas chromatography method. […]
Triacylglycerols (TAG) content was immediately determined in blood serum using enzyme kits from Chronolab (Spain). For this purpose, 10 μl of serum or standard TAG solution was added to 1 ml of a working reagent, incubated for 5 min at […] in a thermostat and an optical density at 500 nm was determined on a spectrophotometer.

[2] = Omega-3 index in male volunteers after intake of capsules; format: in vivo; conditions: xenon 5-250 vol. %, krypton 5-70 vol. % in Epax 5025 TGN
Protocol: Testing was carried out on 14 male volunteers, age from 38 to 47 years. Control and 5 experimental groups of 2 people each. […] For testing the control group, the product used was Epax Ultra Concentrates (Epax 5025 TGN), manufactured by Epax Norway AS. For experimental group 1 xenon was introduced into the product in concentration of 5 vol. %; for experimental group 2-20 vol. %; for experimental group 3-250 vol. %; for experimental group 4-krypton-5 vol. %; for experimental group 5-24 vol. %; for experimental group 6-70 vol. %. A product saturation with gases was done as described above, but at a small overpressure: krypton at 2.0 mPa, and xenon—0.2 mPa. All products (for control and experimental groups) were encapsulated in soft gelatin capsules weighing 0.5 g. All volunteers took 4 capsules per day, 2 in the morning and 2 in the evening, on an empty stomach. Omega-3 index tests were again taken after 1 month.

[3] = when injected into the body; cited from earlier work

| Structure (SMILES) | TAG levels versus control [1] | effect on Omega-3 index [2] | time to complete elimination of the gas from the body [3] [h] |
| --- | --- | --- | --- |
| [Kr] [krypton] | significant increase | dose-dependent increase | – |
| [Xe] [xenon] | significant increase | dose-dependent increase | ≤ 4 |
